Measurements taken from US4022895A, “Substituted phenylglycylcephalosporins” (SmithKline Corporation, priority 1975, dated 1977).
Values after ≈ are worked out from the molar mass of the structure shown. Where two headings read alike, the source gives them in different places.

Assays:
E.coli 12140 = test: In vivo activity (ED50) against E.coli 12140
Klebs.pneumo. 4200 = test: In vivo activity (ED50) against Klebs.pneumo. 4200
[1] = test system: Entero. aerog. ATCC 13048; test: In vitro antibacterial activity (MIC); format: cell-based; settings: Entero. aerog. ATCC 13048, in vitro; read-out: MIC
Description: (§1) The compounds of this invention have antibacterial activity against Gram-positive and Gram-negative organisms. Minimum inhibitory concentrations (MIC's) ranged from 0.4 to >200 μg/ml in in vitro testing.

S.aureus HH 127 = test: In vitro antibacterial activity (MIC); format: cell-based; settings: Staphylococcus aureus, HH127
Description: as §1

S.aureus Villaluz = test: In vitro antibacterial activity (MIC); format: cell-based; settings: Staphylococcus aureus
Description: as §1

Kleb. pneumo. SK 4200 = test: In vitro antibacterial activity (MIC); format: cell-based
Description: as §1

E. coli HH 33779 = test: In vitro antibacterial activity (MIC); format: cell-based; settings: Escherichia coli, HH33779; E. coli HH 33779, in vitro; read-out: MIC
Description: as §1

Kleb. pneumo. SK 1200 = test: In vitro antibacterial activity (MIC); format: cell-based; settings: Kleb. pneumo. SK 1200, in vitro; read-out: MIC
Description: as §1

Strep. faecalis HH 34358 = test: In vitro antibacterial activity (MIC); format: cell-based; settings: Enterococcus faecalis, HH34358; Strep. faecalis HH 34358, in vitro
Description: as §1

E.coli SK 12140 = test: In vitro antibacterial activity (MIC); format: cell-based; settings: Escherichia coli, SK12140
Description: as §1

S.aureus SK 23390 = test: In vitro antibacterial activity (MIC); format: cell-based; settings: Staphylococcus aureus, SK23390
Description: as §1

Shig. paradys HH 112 = test: In vitro antibacterial activity (MIC); format: cell-based; settings: Shig. paradys HH 112, in vitro; read-out: MIC
Description: as §1

[2] = test system: Sal. paratyphl ATCC 12176; test: In vitro antibacterial activity (MIC); format: cell-based
Description: as §1

Proteus morgani 179 = test: In vitro antibacterial activity (MIC); format: cell-based; settings: Proteus morgani 179, in vitro; read-out: MIC
Description: as §1

[3] = Escherichia coli, 12140, po, E.coli 12140, p.o.
[4] = Escherichia coli, 12140, sc, E.coli 12140, s.c.
[5] = po, Klebs.pneumo. 4200, p.o., read-out: ED50
[6] = sc, Klebs.pneumo. 4200, s.c., read-out: ED50
[7] = S.aureus HH 127, in vitro, read-out: MIC
[8] = Kleb. pneumo. SK 4200, in vitro, read-out: MIC
[9] = E.coli SK 12140, in vitro, read-out: MIC
[10] = S.aureus SK 23390, in vitro, read-out: MIC

SMILES | ED50 (E.coli 12140; [3]) [mg/kg] | ED50 (E.coli 12140; [4]) [mg/kg] | ED50 (Klebs.pneumo. 4200; [5]) [mg/kg] | ED50 (Klebs.pneumo. 4200; [6]) [mg/kg] | MIC [1] [µg/mL] | MIC (S.aureus HH 127; [7]) [µg/mL] | MIC (S.aureus Villaluz) [µg/mL] | MIC (Kleb. pneumo. SK 4200; [8]) [µg/mL] | MIC (E. coli HH 33779) [µg/mL] | MIC (Kleb. pneumo. SK 1200) [µg/mL] | MIC (Strep. faecalis HH 34358) [µg/mL] | MIC (E.coli SK 12140; [9]) [µg/mL] | MIC (Shig. paradys HH 112) [µg/mL] | MIC [2] [µg/mL] | MIC (Proteus morgani 179) [µg/mL] | MIC (S.aureus SK 23390; [10]) [µg/mL] | further results
Cc1nnc(SCC2=C(C(=O)O)N3C(=O)C(NC(=O)C(N)c4ccc(OCC(N)=O)cc4)C3SC2)s1 (stereo not drawn) [*71816] | 21.5 | 13.7 | 13.7 | 11.5 | 100 (≈ 182 µM) | 25 (≈ 45.4 µM) | 100 (≈ 182 µM) | 25 (≈ 45.4 µM) | 50 (≈ 90.8 µM) | 50 (≈ 90.8 µM) | 200 (≈ 363 µM) | 50 (≈ 90.8 µM) | 12.5 (≈ 22.7 µM) | 12.5 (≈ 22.7 µM) | – | – | MIC (S.aureus SK 23390): 12.5 µg/mL (≈ 22.7 µM)
CC(=O)OCC1=C(C(=O)O)N2C(=O)C(NC(=O)[C@H](N)c3ccc(OCC(=O)O)cc3)C2SC1 (stereo partly drawn) [Compound No. 60326, 7-[D-α-Amino-α-(4'-carboxymethoxyphenyl)acetamido]-cephalosporanic acid] | 200 | 11.2 | 63 | 12.5 | 25 (≈ 52.1 µM) | 12.5 (≈ 26.1 µM) | 200 (≈ 417 µM) | 6.3 (≈ 13.1 µM) | 25 (≈ 52.1 µM) | 6.3 (≈ 13.1 µM) | 200 (≈ 417 µM) | 6.3 (≈ 13.1 µM) | – | 3.1 (≈ 6.47 µM) | > 200 | 12.5 (≈ 26.1 µM) | –
COC(=O)COc1ccc([C@@H](N)C(=O)NC2C(=O)N3C(C(=O)O)=C(C)CSC23)cc1 (stereo partly drawn) [Compound No. 07826, 7-[D-α-Amino-α-(4'-carbomethoxymethoxyphenyl)acetamido]-3-desacetoxycephalosporanic acid] | – | – | – | – | > 200 | 6.3 (≈ 14.5 µM) | 200 (≈ 459 µM) | 100 (≈ 230 µM) | > 200 | 100 (≈ 230 µM) | 100 (≈ 230 µM) | 100 (≈ 230 µM) | 50 (≈ 115 µM) | 50 (≈ 115 µM) | – | 6.3 (≈ 14.5 µM) | –
N[C@@H](C(=O)NC1C(=O)N2C(C(=O)O)=C(CSc3c[nH]nn3)CSC12)c1ccc(SCC(=O)O)cc1 (stereo partly drawn) [Compound No. 04726, 7-[D-α-Amino-α-(4'-carboxymethylthiophenyl)-acetamido]-3-(1,2,3,-triazol-4-ylthiomethyl)-3-cephem-4-carboxylic acid] | 46 | 12.5 | 14.5 | 9.5 | 25 (≈ 46.6 µM) | 12.5 (≈ 23.3 µM) | 100 (≈ 186 µM) | 3.1 (≈ 5.78 µM) | 12.5 (≈ 23.3 µM) | 3.1 (≈ 5.78 µM) | 200 (≈ 373 µM) | 25 (≈ 46.6 µM) | 6.3 (≈ 11.7 µM) | – | – | 12.5 (≈ 23.3 µM) | –
Cc1nnc(SCC2=C(C(=O)O)N3C(=O)C(NC(=O)[C@H](N)c4ccc(SCCC(=O)O)cc4)C3SC2)s1 (stereo partly drawn) [Compound No. 61726, 7-[D-α-Amino-α-(4'-carboxyethylthiophenyl)acetamido]-3-(5-methyl-1,3,4-thiadiazol-2-ylthiomethyl)-3-cephem-4-carboxylic acid] | – | – | > 50 | 50 | 25 (≈ 43 µM) | 6.3 (≈ 10.8 µM) | 50 (≈ 86 µM) | 6.3 (≈ 10.8 µM) | 25 (≈ 43 µM) | 6.3 (≈ 10.8 µM) | 50 (≈ 86 µM) | – | – | 12.5 (≈ 21.5 µM) | 200 (≈ 344 µM) | 6.3 (≈ 10.8 µM) | MIC (E.coli SK 12140): 12.5 µg/mL (≈ 21.5 µM)
CC1=C(C(=O)O)N2C(=O)C(NC(=O)[C@H](N)c3ccc(NCC(=O)O)cc3)C2SC1 (stereo partly drawn) [Compound No. 51436, 7-[D-α-Amino-α-(4'-carboxymethylaminophenyl)acetamido]-3-desacetoxycephalosphoranic acid] | – | – | – | – | 100 (≈ 238 µM) | – | 200 (≈ 476 µM) | – | 25 (≈ 59.5 µM) | 50 (≈ 119 µM) | 200 (≈ 476 µM) | 25 (≈ 59.5 µM) | 25 (≈ 59.5 µM) | – | – | – | MIC (S.aureus HH 127): 12.5 µg/mL (≈ 29.7 µM); MIC (Kleb. pneumo. SK 4200): 12.5 µg/mL (≈ 29.7 µM); MIC (S.aureus SK 23390): 12.5 µg/mL (≈ 29.7 µM)
COC(=O)COc1ccc([C@@H](N)C(=O)NC2C(=O)N3C(C(=O)O)=C(CSc4nnc(C)s4)CSC23)cc1 (stereo partly drawn) [Compound No. 96826, 7-[D-α-Amino-α-(4'-carbomethoxymethoxyphenyl)acetamido]-3-(5-methyl-1,3,4-thiadiazol-2-ylthiomethyl)-3-cephem-4-carboxylic acid] | 9.4 | < 3 | – | 7.2 | 50 (≈ 88.4 µM) | 3.1 (≈ 5.48 µM) | 25 (≈ 44.2 µM) | 25 (≈ 44.2 µM) | 50 (≈ 88.4 µM) | 25 (≈ 44.2 µM) | 25 (≈ 44.2 µM) | 25 (≈ 44.2 µM) | 12.5 (≈ 22.1 µM) | – | 25 (≈ 44.2 µM) | 3.1 (≈ 5.48 µM) | ED50 (Klebs.pneumo. 4200; po): 12.5 mg/kg
